What all share (assay type): cell-based, human
Test [1] has as its system CVB3/plasma induced IFNα production by PBMCs. The test is described as follows: CVB3/plasma induced IFNα production by PBMCs (DELFIA). The note with it: CVB3 infection of PBMCs; healthy donor plasma preincubated 1 h with the VP4 protein before CVB3; 48 h; positive control 323 IU/ml. As to the method: (§1) VP4, H antigen or mock proteins were preincubated for 1 h at 37° C. at different concentrations with plasma from 5 healthy subjects diluted at optimal dilution (1/10 or 1/100 ). CVB3 or CVB4 were then added for 1 hour before incubating with PBMCs. […] On the contrary, the mock proteins isolated from non-infected Hep-2 cells have non effect on the IFNα production.
PBMCs separated from whole heparinated blood are distributed into microwells (plate of 96 wells), at the rate of 5 to 8.10^5 cell in 100 μl of supplemented RPMI medium by well. The infection of PBMC is made with a final volume of 100 μl of preparation in each well. […]
(§2) The concentration of the produced IFNα is determined with a sensitive and specific technique, the DELFIA method (Dissociation Enhanced Lanthanide FluoroImmmoAssay) (Rönnblom and al 1997).
The dosage of IFNα is performed following the DELFIA principle (Dissociation Enhanced Lanthanide FluoroImmunoAssay), based on a immunofluorescence in retarded phase method using antibodies binding IFNα of which one is labelled with europium. The use of an activation solution will release the europium conjugated with antibodies and emit a fluorescence proportional to the amount of produced IFNα and measured with a fluorometer (fluorometer LKB Wallac 1230 ARCOSO®, Turku, Finlande). […]

Test [2] concerns CVB4E2/plasma induced IFNα production by PBMCs. The test is described as follows: CVB4E2/plasma induced IFNα production by PBMCs (DELFIA). The procedure: as §1
(§3) PBMCs separated from whole heparinated blood are distributed into microwells (plate of 96 wells), at the rate of 5 to 8.10^5 cell in 100 μl of supplemented RPMI medium by well. The infection of PBMC is made with a final volume of 100 μl of preparation in each well. After incubation for 48 h at 37° C. under a 5% CO2 atmosphere and 90% humidity, the supernatant is harvested and used immediately for IFNα dosage, or clarified by centrifugation for 10 minutes at 180×g and stored at −80° C. until dosage of the produced IFNα.
as §2
(§4) The dosage of IFNα is performed following the DELFIA principle (Dissociation Enhanced Lanthanide FluoroImmunoAssay), based on a immunofluorescence in retarded phase method using antibodies binding IFNα of which one is labelled with europium. The use of an activation solution will release the europium conjugated with antibodies and emit a fluorescence proportional to the amount of produced IFNα and measured with a fluorometer (fluorometer LKB Wallac 1230 ARCOSO®, Turku, Finlande).
Monoclonal anti-IFNα antibodies LT 273 (5.4 mg/ml) and LT 293 (4.8 mg/ml) supplied by Dr Gunar Alm (Uppsala, Sweden) are coated to the bottom of the wells after an incubation for 12 hours at room temperature. These plates can be stored in a buffer at 4° C. or are used immediately. Standard samples of human IFNα are prepared with an “irrelevant” monoclonal mouse antibody IgG1 in order to establish the reference curve (10 measurements). The other samples to be analysed are added to each well (100 μl) with the dilution buffer and the “irrelevant” antibodies and incubated for 2 hours with gentle stirring at room temperature. The wells are washed 3 times with the washing solution. The antibody conjugated to europium (200 μl) is added to each well, left to incubate for 1 hour at room temperature with gentle stirring. The plate is washed 6 times with a washing solution. The activation solution (200 μl), added immediately after washing and left for 20 to 30 minutes for incubation in the well, causes a cleavage of the europium bound to the antibody fixed to IFNα, emitting a fluorescence measured with the fluorescence reader (LKB Wallac 1230 ARCUS®). The IFNα concentration will be calculated from the values of the measured fluorescence by means of the Graphpad program (San Diego, USA). The detection threshold of IFNα is of 0.5 IU/ml.
The plasma from a healthy donor (optimal dilution 1/10th or 1/100th) is pre-incubated for 1 hour at 37° C. with the recombinant VP4 protein of CVB4E2 (optimal concentration at 1 μg/ml). The whole is incubated again for one hour at 37° C. in the presence of the CVB4E2 virus (dilutions at 1/10th or 1/100th; viral titer at 10^13 TCID50/ml) then applied to the PBMCs, (5.10^5/well) to incubate for 48 hours.
In the same way, the plasma preparation preincubated for 1 hour and VP4 of CVB3 are incubated for 1 hour with CVB4E2 before infecting the PBMCs for 48 hours and determinating the amount of the produced IFNα.
The virus (CVB4E2 or CVB3) infected PBMCs in the presence of plasma are deemed to be positive controls of this experimentation. The negative controls are obtained with one well of PBMC alone, one well of virus CVB4B2 alone and one well of CVB3 alone.
The CVB4E2 induced IFNα production in cultures of PBMCs previously incubated in the presence of plasma from healthy subjects was measured. […]

A further test has as its system IFNα production by PBMCs. In words: IFNα production by PBMCs with VP4 protein alone (control wells). The following applies: no virus, no plasma. As to the method: as §3, §2, §4
(§5) Monoclonal anti-IFNα antibodies LT 273 (5.4 mg/ml) and LT 293 (4.8 mg/ml) supplied by Dr Gunar Alm (Uppsala, Sweden) are coated to the bottom of the wells after an incubation for 12 hours at room temperature. […]

Test [3] concerns different CVB serotypes (CVB1 to CVB6)/plasma induced IFNα production by PBMCs. The test is described as follows: IFNα production during infection of PBMCs by different CVB serotypes in presence of plasma preincubated with VP4-CVB4E2. The following applies: plasma 1/10 preincubated 1 h with VP4 recombinant protein of CVB4E2 diluted 1/10. The procedure: as §3, §2, §4, §5

Regarding “recombinant VP4 protein: recombinant VP4 protein of CVB4E2, made in E. coli as MBP-VP4 fusion and cleaved by Factor Xa”, the IFNα production is listed as 308 IU/ml in test [1]; 8.5 IU/ml in test [2] (CVB4E2 infection of PBMCs, healthy donor plasma preincubated 1 h with the VP4 protein before CVB4E2, 48 h, positive control 148 IU/ml); 189.5+/−21.6 IU/mL in test [2] (protein at 0.01 μg/mL preincubated with plasma, then CVB4E2 (m.o.i. 1), PBMCs 48 h, mean +/- SD, three donors); 104.7+/−4.5 IU/mL in test [2] (protein at 0.1 μg/ml preincubated with plasma, then CVB4E2 (m.o.i. 1), PBMCs 48 h, mean +/- SD, three donors); 44.1+/−24.3 IU/mL in test [2] (protein at 1 μg/ml preincubated with plasma, then CVB4E2 (m.o.i. 1), PBMCs 48 h, mean +/- SD, three donors); 15.3+/−7.9 IU/mL in test [2] (protein at 10 μg/ml preincubated with plasma, then CVB4E2 (m.o.i. 1), PBMCs 48 h, mean +/- SD, three donors). The “IFNα production in the presence of CVB4E2” value in test [2] (plasma 1/10 preincubated 1 h with VP4 recombinant protein of CVB4E2 diluted 1/10) is given as “collapsed”. The “IFNα production by PBMCs, protein alone” value in the test on IFNα production by PBMCs is “do not lead to the IFNα production”. In addition, the “IFNα production with CVB serotypes other than CVB4E2” value in test [3] was “remains high and stable”.

Values taken from patent US7534558B2, “In vitro diagnostic test for enterovirus infections” (Universite de Lille 2 Droit Et Sante, priority 2003, dated 2009).
